Entries after “also recorded” stand apart in the source; their conditions may differ.
Experiments:
SARS-CoV-2 [1] = assay: microbe, parasite or virus in culture; assay type: cell-based; details: Severe acute respiratory syndrome coronavirus 2, Vero C1008, Vero E6 cells, SARS-CoV-2/Leiden0002, n = 3, mean ± SEM; read-out: EC50 (μM), SARS-CoV-2 CPE reduction
[2] = tested on: recombinant Mus musculus α-Glu II; assay: Thermal shift assay (SYPRO orange); assay type: binding; details: 10 μM Mmα-Glu-II with 50 μM inhibitor; unliganded control 49.9 °C
SARS-CoV-2 [3] = assay: Viral load reduction assay on H1299/ACE2 cells, extracellular viral RNA copies by RT-qPCR; assay type: cell-based
SARS-CoV-2 [4] = assay: Viral load reduction assay in Calu-3 cells, infectious virus titer by plaque assay; assay type: cell-based
Protocol: Cells were pretreated with 11 and infected with SARS-CoV-2 at a multiplicity of infection (MOI) of 1. At 16 h postinfection (hpi) supernatant was harvested to quantify the infectious virus titer by plaque assay and extracellular viral RNA copies by RT-qPCR. […] This is in line with the expected mechanism of action of the compound that involves viral (structural) protein maturation, likely resulting in reduced infectivity of progeny virus. We then calculated the specific infectivity (defined as the number of infectious particles per viral RNA copy) of treated and untreated samples for the data in Figure 3A,B (Figure 3C). […] None of the treatments caused noticeable cytotoxicity in uninfected treated cells (Figure 3B). Similarly, treatment of infected Calu-3 lung epithelial cells with 11 reduced infectious progeny virus titers by ∼10-fold, while no reduction in extracellular viral RNA copies was observed (Figure S3).
Figure S2: Cytopathic effect reduction assays on Vero E6 monkey kidney cells and H1299/ACE2 human lung epithelial cells. […]
plaque assay and RT-qPCR, respectively. Uninfected compound-treated cells were assessed by MTS assay in parallel to measure cytotoxicity of the compounds. n=3 independent experiments. […]

SARS-CoV-2 [5] = assay: Plaque reduction assay on H1299/ACE2 cells (time of treatment); assay type: cell-based
Protocol: To evaluate whether compound 11 has an effect on host proteins (for instance, ACE2) involved in viral entry, we treated monolayers of H1299/ACE2 cells with compound 11 either 48 or 2 h before infection, during infection (0–1 h), or starting from 1 h postinfection (hpi). The cell monolayers were infected with ∼20 PFU of SARS-CoV-2, and after 1 h the inoculum was replaced with an overlay. In one well (Post Infection) the overlay contained compound 11. Remdesivir, a viral RNA synthesis inhibitor, was added to the overlay of another well, as a positive control for blocking virus replication in the cell.
H1299/ACE2 cells were seeded in a 6-well plate at a density of 1.3 × 10^5 cells/well (20% confluency), 96 h prior to infection. […] The monolayers were infected with ∼20 PFU of SARS-CoV-2/Leiden0008. In the postinfection treatment, the compound (or RDV) was added to the Avicel overlay. Cells were incubated for 4 days at 37 °C before fixation and crystal violet staining.

SARS-CoV-2 S protein = assay type: cell-based
SARS-CoV-2 [6] = assay: CPE reduction assay on H1299/ACE2 lung epithelial cells; assay type: cell-based; details: compared with Vero E6
GBA2 = details: cited from earlier work
GBA3 = details: cited from earlier work
GCS = tested on: GCS; set-up: method as in PMID 28776021; details: cited from earlier work
in vitro = details: African green monkey
SARS-CoV-2 [7] = assay: Virucidal activity assay; details: virus incubated 1 h; compound 11 at 50 μM

Q: For `O=S1(=O)O[C@@H]2[C@H](O)[C@@H](O)[C@H](O)[C@@H](CO)[C@@H]2O1` [Compound 11, 1,6-epi-cyclophellitol cyclosulfate], which EC50 (SARS-CoV-2 [1]) is on record?
A: Its EC50 is 0.48 ± 0.1 µM.

Q: And the “Tm/°C” value [2]?
A: The value was 63.3 °C.

Q: And the “extracellular viral RNA copy numbers (in words)” value (SARS-CoV-2 [3])?
A: The value was “only slightly reduced”.

Q: What about the “reduction of infectious virus titers” value (SARS-CoV-2 [4]; Calu-3, 0.5–1.6 μM) of the same compound?
A: The value was “up to 2 logs”.

Q: What about the “reduction of infectious progeny virus titers” value (SARS-CoV-2 [4]; Calu-3, MOI 1, 16 hpi) of the same compound?
A: Its value is about 10 fold.

Q: And the “plaque formation, pretreatment or treatment only during infection” value (SARS-CoV-2 [5]; H1299/ACE2, 5 μM, 48 or 2 h before or 0–1 h)?
A: The value was “had no effect on the number of plaques that developed or their morphology”.

Q: What about the “plaque formation, treatment after infection (in the overlay)” value (SARS-CoV-2 [5]; H1299/ACE2, compound 11 at 5 μM) of the same compound?
A: The value was “prevented the formation of plaques”.

Q: And the “S protein in infected cells (immunofluorescence)” value (SARS-CoV-2 S protein)?
A: The value was “reduction in the amount of S protein”.

Q: What about the syncytium formation (SARS-CoV-2 S protein) of the same compound?
A: The syncytium formation was “reduced syncytium formation”.

Q: What about the “EC50 values in CPE reduction assay (in words)” value (SARS-CoV-2 [6]) of the same compound?
A: The value was “comparable EC50 values”.

Q: What about the “inhibition of GBA2” value (GBA2) of the same compound?
A: Its value is “completely inactive; also recorded: does not inhibit”.

Q: And the “inhibition of GBA3” value (GBA3)?
A: The value was “does not inhibit”.

Q: And the “inhibition of GCS” value (GCS)?
A: The value was “does not inhibit”.

Q: What about the CC50 at 3 days (in vitro) of the same compound?
A: Its CC50 at 3 days is over 200000 nM.

Q: What about the “virucidal effect on infectious titer” value (SARS-CoV-2 [7]) of the same compound?
A: The value was “no effect on the infectious titer”.

From article PMC11363342 (ACS Central Science, 2024)
